Literature values as cited in patent publication US20250235488A1, “COMPOSITIONS AND METHODS FOR PROVIDING HEMATOPOIETIC FUNCTION” (Fred Hutchinson Cancer Center, priority 2010, published 2025).

Legend:
[1] = not given; remark: listed apart in the source

O=NN(CCCl)C(=O)NCCCl [Carmustine]
CSF concentrations as percentage of concurrent plasma concentrations (in vivo): 15-70%
time after which no intact drug is detectable in plasma (in vivo, iv): 15 min
solubility in alcohol [1]: freely soluble
solubility in lipids [1]: highly soluble
solubility in water [1]: slightly soluble

Nc1ccn([C@@H]2O[C@H](CO)[C@@H](O)[C@@H]2O)c(=O)n1 [Cytarabine]
plasma half-life, initial phase (after rapid IV injection): about 10 minutes
plasma half-life, terminal phase (after rapid IV injection): 1 to 3 h
dose excreted in the urine within 24 hours (rapid IV, IM, SQ, IT injection or continuous IV infusion): 70-80%
